Reference: ChEMBL document CHEMBL1201862, “PubChem BioAssay data set” (2004)
Calls of active or inactive are those of the source.

Legend:
[1] = target: Caspase-6 (Homo sapiens, UniProt P55212); test: human caspase-6 inhibitors, dose response, biochemical, VEID-R110 fluorescence, cherry-pick (AID 720632)
[2] = target: Caspase-7 (Homo sapiens, UniProt P55210); test: human caspase-7 inhibitors, dose response, selectivity assay for caspase-6 inhibitor project, biochemical, DEVD-R110 fluorescence, cherry-pick (AID 743295)
[3] = Shn3 3'UTR reporter inhibitors, dose response, cell-based, Clone20 osteoblasts, firefly luciferase, cherry-picked (AID 624132); assay type: functional;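 note: firefly luciferase luminescence from reporter carrying the Shn3 3'UTR in osteoblasts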
[4] = HepG2 cell cytotoxicity, dose response, cytotoxicity control for Shn3 inhibitor project, CellTiter-Glo, cherry-picked (AID 624134); assay type: functional, cell-based
[5] = control 3'UTR Renilla luciferase suppression, dose response, counter-screen for Shn3 inhibitor project, cell-based, Clone20-Shn3RL, cherry-picked (AID 624133); assay type: functional
[6] = reduction of Shn3 3'UTR firefly luciferase signal, dose response, Schnurri-3 inhibitor project, cell-based, Clone20 osteoblasts, cherry-pick, set 2 (AID 720490); assay type: functional;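 note: actives lower the luminescence signal as inhibitors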
[7] = target: Induced myeloid leukemia cell differentiation protein Mcl-1 (Homo sapiens, UniProt Q07820); assay type: functional
[8] = target: ORF 73 (Human herpesvirus 8, UniProt O40947); test: inhibitors of C-LANA binding to LBS DNA, dose response, biochemical, fluorescence polarization, cherry-picked samples (AID 504725); design: species or system Human gammaherpesvirus 8;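 note: fluorescence polarization of a labeled DNA duplex reporting LANA DNA binding; potency is for inhibitors that block LANA binding to the DNA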
[9] = target: Intestinal-type alkaline phosphatase (Mus musculus, UniProt P24822); test: PubChem AID 488785; assay type: functional
[10] = target: T1, Alkaline phosphatase, tissue-nonspecific isozyme (Homo sapiens, UniProt P05186); test: TNAP enzyme inhibition by screening hits, dose response, selectivity assay for mouse IAP inhibitor project, biochemical, human TNAP, uHTS hits (AID 488906); assay type: functional
T1 sequence (P05186 whole entry): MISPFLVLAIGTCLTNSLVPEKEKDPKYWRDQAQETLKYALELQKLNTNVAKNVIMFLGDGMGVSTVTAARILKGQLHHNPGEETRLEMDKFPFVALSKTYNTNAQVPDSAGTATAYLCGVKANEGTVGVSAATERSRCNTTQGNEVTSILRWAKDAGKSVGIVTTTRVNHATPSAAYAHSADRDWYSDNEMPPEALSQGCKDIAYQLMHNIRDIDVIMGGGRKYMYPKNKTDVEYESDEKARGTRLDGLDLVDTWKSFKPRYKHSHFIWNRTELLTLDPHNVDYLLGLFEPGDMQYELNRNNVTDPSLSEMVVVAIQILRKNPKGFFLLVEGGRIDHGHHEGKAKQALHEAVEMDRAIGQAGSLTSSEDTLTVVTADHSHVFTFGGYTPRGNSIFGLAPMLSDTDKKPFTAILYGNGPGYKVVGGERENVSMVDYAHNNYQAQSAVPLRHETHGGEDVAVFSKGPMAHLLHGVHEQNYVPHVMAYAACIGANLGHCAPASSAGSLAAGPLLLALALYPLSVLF

[11] = target: Intestinal-type alkaline phosphatase (Homo sapiens, UniProt P09923); test: inhibition of human intestinal alkaline phosphatase – biochemical, dose response (AID 488876); assay type: functional
[12] = target: Histone-lysine N-methyltransferase NSD2 (Homo sapiens, UniProt O96028); assay type: biochemical
[13] = target: 1-phosphatidylinositol 4,5-bisphosphate phosphodiesterase gamma-1 (Homo sapiens, UniProt P19174); test: Counterscreen for inhibitors of phospholipase C isozymes (PLC-B3): Fluorescence-based biochemical high throughput dose response assay to identify inhibitors of phospholipase C isozymes (PLC-gamma1).
[14] = target: 1-phosphatidylinositol 4,5-bisphosphate phosphodiesterase beta-3 (Homo sapiens, UniProt Q01970); test: Fluorescence-based biochemical high throughput dose response assay to identify inhibitors of phospholipase C isozymes (PLC-B3).
[15] = target: T2, Replicative DNA helicase DnaB (Mycobacterium tuberculosis, UniProt P9WMR3); test: DnaB intein splicing inhibitors, dose response, biochemical, cell-free fluorescence (AID 449749); assay type: functional
T2 sequence (P9WMR3 whole entry): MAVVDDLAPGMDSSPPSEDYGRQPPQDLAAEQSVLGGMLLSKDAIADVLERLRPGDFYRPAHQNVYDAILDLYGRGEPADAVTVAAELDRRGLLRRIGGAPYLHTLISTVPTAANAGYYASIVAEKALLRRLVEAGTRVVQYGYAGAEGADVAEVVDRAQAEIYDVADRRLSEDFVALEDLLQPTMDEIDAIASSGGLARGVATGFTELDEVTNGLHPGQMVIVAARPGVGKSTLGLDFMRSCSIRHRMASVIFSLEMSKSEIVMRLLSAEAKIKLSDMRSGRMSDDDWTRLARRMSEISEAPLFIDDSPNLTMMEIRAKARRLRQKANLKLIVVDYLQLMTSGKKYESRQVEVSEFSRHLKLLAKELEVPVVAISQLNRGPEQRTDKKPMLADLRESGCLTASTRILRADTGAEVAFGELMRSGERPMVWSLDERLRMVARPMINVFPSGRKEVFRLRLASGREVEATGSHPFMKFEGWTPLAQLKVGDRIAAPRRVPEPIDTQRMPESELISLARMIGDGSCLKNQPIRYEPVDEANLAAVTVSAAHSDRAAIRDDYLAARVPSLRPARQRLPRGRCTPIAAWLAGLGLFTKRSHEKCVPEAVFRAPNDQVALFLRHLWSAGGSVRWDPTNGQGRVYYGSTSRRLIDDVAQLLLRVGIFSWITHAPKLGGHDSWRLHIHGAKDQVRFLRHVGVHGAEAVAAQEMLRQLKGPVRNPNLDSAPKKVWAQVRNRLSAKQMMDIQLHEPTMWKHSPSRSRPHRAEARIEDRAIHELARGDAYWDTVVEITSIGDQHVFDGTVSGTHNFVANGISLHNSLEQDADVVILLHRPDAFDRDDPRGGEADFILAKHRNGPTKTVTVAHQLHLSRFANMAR

[16] = target: T3, Apoptotic protease-activating factor 1 (Homo sapiens, UniProt O14727); assay type: functional
T3 sequence (O14727 whole entry): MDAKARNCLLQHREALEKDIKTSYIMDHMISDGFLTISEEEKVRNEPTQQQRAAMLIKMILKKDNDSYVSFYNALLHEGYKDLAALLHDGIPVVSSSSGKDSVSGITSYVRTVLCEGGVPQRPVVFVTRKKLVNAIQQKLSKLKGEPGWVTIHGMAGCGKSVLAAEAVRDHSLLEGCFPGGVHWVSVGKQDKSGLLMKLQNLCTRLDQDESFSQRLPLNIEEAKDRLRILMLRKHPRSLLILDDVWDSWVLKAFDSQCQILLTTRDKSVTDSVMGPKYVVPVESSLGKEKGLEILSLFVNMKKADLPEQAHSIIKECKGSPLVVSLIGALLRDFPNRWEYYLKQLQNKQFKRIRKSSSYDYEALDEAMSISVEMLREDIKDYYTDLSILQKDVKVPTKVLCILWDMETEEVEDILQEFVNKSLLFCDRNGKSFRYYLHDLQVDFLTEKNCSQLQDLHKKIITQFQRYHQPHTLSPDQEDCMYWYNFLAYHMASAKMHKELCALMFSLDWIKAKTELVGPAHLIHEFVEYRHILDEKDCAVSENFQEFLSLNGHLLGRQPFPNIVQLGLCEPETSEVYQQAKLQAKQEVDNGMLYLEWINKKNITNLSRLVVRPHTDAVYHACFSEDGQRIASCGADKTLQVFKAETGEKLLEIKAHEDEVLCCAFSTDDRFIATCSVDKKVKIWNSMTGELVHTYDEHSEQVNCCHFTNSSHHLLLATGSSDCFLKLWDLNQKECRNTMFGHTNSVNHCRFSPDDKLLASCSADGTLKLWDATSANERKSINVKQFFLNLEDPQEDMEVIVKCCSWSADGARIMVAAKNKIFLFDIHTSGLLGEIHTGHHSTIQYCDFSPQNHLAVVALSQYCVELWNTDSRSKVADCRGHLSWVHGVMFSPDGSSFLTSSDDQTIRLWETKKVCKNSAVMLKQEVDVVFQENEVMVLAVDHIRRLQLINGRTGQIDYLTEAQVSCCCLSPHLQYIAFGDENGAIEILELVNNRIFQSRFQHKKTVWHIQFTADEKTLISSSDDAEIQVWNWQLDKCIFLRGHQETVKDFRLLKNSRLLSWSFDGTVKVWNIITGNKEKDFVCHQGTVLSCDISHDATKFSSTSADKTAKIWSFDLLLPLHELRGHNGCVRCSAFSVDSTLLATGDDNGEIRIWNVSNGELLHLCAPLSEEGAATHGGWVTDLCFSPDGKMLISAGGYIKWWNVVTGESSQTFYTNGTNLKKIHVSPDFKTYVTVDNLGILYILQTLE

[17] = target: T4, Protein RecA (Mycobacterium tuberculosis, UniProt P9WHJ3); test: Fluorescence Cell-Free Homogeneous Dose Retest to Identify Inhibitors of RecA-Intein Splicing Activity. [Related pubchem assays (depositor defined):AID2097, AID2223, AID489010, AID492950]; assay type: functional
T4 sequence (P9WHJ3 whole entry): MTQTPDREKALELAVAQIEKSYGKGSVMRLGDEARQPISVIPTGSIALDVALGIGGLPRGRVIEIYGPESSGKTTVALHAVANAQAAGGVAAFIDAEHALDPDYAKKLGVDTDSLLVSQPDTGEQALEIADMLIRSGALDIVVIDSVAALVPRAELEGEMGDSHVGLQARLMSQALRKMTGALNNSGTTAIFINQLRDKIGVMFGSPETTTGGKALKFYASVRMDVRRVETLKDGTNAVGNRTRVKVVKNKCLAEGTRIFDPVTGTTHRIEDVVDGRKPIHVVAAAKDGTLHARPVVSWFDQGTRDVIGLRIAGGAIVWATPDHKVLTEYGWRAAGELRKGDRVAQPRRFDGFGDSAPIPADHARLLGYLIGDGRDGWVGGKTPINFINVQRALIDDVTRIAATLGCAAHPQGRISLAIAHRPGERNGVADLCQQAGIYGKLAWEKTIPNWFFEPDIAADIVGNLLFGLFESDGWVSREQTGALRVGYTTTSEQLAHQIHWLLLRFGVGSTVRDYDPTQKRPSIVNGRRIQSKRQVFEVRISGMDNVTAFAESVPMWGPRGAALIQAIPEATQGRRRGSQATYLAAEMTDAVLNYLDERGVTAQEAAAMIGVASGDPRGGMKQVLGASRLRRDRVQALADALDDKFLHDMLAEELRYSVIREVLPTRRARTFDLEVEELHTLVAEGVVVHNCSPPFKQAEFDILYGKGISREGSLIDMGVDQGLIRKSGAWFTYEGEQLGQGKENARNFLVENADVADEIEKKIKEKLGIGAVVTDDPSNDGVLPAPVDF

[18] = target: Tyrosyl-DNA phosphodiesterase 2 (Homo sapiens, UniProt O95551); test: human TDP2 enzyme inhibitors, dose response, biochemical, epi absorbance, IC50 (AID 743297)
[19] = A375 melanoma cell cytotoxicity, dose response, counter-screen for MITF inhibitor project, CellTiter-Glo luminescence, dry powder, set 2 (AID 624489); assay type: functional, cell-based; settings: A-375;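 note: actives are compounds lowering A375 viability meaning general cytotoxicity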
[20] = NIH/3T3 fibroblast cytotoxicity, dose response, cytotoxicity control, cell-based, plate reader, dry powder, set 2 (AID 652280); assay type: functional; settings: NIH3T3
[21] = T. cruzi growth inhibition in host cells, dose response, cell-based, plate reader, dry powder, set 2 (AID 652275); assay type: functional
[22] = YAP1 pathway inhibition via CTGF transcript levels, dose response, cell-based, DLD1 colon cancer, RT-qPCR, cherry-pick (AID 1053122); assay type: functional; settings: Cancer cell lines
[23] = HEK293 cell cytotoxicity, dose response, cytotoxicity control, ATP luminescence, dry powder, Set6 (AID 743142); assay type: functional, cell-based
[24] = A549 cell cytotoxicity, dose response, cytotoxicity control, CellTiter-Glo luminescence, dry powder, set 3 (AID 743146); assay type: functional, cell-based
[25] = HepG2 cell cytotoxicity, dose response, cytotoxicity control, luminescence plate reader, powder samples, set 2 (AID 651860); assay type: functional, cell-based

Sequence of Induced myeloid leukemia cell differentiation protein Mcl-1 (Q07820 whole entry): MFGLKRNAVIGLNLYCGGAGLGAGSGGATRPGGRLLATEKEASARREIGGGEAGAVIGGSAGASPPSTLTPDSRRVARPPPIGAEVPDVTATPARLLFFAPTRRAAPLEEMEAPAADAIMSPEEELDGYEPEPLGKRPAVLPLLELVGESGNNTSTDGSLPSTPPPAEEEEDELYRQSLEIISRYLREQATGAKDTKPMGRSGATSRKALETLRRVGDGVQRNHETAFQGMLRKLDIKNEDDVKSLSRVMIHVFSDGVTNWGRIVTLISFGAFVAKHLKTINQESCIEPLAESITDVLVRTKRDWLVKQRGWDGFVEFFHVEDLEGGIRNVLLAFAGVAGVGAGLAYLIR
Sequence of Histone-lysine N-methyltransferase NSD2 (O96028 whole entry): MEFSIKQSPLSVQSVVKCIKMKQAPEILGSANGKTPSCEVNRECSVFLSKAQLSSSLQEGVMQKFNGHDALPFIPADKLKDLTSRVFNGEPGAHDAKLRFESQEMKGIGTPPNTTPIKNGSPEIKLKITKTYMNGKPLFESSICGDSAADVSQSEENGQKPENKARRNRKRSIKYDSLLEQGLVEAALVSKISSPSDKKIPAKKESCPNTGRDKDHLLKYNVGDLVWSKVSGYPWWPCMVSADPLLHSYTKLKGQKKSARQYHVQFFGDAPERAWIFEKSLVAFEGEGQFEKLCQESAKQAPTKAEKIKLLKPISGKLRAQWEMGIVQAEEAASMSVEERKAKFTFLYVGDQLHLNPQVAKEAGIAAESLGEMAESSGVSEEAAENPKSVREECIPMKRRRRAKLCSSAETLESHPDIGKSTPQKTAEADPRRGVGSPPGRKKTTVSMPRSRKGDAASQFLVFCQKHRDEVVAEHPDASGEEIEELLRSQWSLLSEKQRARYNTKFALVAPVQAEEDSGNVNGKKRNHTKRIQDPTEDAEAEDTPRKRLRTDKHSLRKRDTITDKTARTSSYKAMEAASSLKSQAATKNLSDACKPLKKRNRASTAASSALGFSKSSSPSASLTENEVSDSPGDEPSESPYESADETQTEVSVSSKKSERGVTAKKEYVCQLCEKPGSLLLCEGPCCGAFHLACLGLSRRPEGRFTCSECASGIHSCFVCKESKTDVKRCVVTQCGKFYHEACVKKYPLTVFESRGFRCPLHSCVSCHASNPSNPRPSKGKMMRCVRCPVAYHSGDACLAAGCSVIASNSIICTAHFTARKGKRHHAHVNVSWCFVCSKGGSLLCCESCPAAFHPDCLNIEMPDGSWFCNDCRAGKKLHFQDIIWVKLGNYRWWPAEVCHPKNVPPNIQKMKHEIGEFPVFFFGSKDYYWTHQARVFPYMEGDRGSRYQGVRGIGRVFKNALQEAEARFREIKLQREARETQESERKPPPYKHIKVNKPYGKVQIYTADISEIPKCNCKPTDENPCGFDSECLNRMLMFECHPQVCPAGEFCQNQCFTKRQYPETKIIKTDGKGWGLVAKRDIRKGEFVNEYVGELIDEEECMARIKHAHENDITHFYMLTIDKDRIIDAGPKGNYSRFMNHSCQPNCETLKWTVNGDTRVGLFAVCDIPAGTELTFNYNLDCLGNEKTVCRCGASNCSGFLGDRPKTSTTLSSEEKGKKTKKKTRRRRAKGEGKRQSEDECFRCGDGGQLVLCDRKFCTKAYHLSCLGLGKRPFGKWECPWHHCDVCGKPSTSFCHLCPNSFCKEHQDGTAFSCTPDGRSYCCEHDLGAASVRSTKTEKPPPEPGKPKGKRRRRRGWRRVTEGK
Sequence of Intestinal-type alkaline phosphatase (Homo sapiens, UniProt P09923) (P09923 whole entry): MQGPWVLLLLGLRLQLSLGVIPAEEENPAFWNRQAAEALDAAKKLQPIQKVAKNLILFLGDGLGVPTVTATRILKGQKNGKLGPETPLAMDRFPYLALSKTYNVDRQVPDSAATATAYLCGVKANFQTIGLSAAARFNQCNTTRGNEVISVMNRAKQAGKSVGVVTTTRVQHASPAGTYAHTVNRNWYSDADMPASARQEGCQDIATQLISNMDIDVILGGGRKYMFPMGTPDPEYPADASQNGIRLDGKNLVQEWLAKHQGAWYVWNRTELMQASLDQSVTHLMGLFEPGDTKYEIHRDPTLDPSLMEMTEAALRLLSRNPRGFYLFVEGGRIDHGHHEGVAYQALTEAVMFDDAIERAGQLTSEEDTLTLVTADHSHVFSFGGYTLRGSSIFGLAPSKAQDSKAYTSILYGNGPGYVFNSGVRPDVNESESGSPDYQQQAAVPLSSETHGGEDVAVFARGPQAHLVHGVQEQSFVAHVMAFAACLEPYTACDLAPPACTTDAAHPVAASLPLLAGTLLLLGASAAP
Sequence of Caspase-6 (P55212 24-179 limits assumed): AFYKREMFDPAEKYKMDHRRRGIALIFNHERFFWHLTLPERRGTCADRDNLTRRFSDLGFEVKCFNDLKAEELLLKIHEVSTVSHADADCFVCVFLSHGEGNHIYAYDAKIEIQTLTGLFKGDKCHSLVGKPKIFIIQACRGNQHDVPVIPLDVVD
Sequence of Caspase-6 (P55212 194-293 limits assumed): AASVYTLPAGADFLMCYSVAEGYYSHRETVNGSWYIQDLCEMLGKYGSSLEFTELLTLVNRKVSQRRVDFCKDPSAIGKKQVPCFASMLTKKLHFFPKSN
Sequence of 1-phosphatidylinositol 4,5-bisphosphate phosphodiesterase gamma-1 (P19174 whole entry): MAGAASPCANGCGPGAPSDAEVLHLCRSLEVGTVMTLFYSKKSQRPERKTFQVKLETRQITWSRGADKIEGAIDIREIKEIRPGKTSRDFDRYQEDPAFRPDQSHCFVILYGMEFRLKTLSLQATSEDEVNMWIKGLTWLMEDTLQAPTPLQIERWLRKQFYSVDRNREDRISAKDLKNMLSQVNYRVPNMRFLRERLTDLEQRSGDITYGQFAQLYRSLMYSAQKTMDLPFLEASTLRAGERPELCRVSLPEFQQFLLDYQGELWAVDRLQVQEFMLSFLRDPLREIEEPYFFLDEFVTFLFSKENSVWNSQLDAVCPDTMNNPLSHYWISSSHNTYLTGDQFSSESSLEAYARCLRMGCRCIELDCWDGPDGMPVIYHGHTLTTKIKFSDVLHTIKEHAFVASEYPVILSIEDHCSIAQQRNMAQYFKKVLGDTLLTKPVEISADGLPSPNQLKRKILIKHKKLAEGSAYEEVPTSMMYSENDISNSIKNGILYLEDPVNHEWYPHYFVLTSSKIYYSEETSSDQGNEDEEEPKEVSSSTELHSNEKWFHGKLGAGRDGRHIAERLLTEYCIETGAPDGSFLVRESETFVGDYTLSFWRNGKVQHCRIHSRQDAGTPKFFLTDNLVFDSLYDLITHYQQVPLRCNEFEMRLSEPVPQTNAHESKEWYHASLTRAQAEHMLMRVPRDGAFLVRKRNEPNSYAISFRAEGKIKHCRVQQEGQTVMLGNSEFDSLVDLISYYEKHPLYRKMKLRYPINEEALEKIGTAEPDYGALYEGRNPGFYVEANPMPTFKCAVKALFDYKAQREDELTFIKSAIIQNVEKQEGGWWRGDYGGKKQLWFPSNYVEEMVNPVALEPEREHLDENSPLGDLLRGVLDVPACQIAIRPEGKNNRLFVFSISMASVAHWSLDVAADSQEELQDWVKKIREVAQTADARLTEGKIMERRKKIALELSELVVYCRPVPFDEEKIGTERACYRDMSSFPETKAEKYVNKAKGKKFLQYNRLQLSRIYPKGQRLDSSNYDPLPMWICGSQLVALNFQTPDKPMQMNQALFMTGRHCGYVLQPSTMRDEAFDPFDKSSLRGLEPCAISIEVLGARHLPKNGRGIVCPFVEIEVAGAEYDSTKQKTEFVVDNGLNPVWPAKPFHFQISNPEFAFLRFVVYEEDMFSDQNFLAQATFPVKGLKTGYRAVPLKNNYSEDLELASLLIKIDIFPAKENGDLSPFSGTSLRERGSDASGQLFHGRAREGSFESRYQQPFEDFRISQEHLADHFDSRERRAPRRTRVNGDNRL
Sequence of Intestinal-type alkaline phosphatase (Mus musculus, UniProt P24822) (P24822 whole entry): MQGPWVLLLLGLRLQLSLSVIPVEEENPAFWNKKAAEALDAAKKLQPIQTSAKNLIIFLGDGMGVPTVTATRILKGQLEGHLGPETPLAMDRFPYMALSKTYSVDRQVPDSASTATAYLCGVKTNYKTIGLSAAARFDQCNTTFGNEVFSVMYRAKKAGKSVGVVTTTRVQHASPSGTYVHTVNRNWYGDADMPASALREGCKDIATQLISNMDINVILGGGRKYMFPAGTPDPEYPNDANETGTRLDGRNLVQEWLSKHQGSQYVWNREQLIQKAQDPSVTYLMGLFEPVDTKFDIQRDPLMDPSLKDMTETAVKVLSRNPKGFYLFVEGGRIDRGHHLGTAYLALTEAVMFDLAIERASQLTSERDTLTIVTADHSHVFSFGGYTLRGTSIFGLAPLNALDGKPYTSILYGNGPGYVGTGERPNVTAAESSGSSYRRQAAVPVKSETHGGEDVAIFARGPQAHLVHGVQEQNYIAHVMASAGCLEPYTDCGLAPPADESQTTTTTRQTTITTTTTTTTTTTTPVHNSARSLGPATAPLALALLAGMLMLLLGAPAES
Sequence of Tyrosyl-DNA phosphodiesterase 2 (O95551 whole entry): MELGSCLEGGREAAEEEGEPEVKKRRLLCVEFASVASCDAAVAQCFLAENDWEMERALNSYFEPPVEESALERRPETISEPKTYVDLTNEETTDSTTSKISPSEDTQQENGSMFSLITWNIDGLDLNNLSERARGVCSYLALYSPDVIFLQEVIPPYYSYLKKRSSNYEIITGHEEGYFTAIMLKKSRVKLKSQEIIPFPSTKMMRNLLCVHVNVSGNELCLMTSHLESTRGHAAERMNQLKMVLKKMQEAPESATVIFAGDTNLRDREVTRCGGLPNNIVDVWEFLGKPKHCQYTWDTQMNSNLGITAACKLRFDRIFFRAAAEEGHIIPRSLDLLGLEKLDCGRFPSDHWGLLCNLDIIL
Sequence of Caspase-7 (P55210 24-198 limits assumed): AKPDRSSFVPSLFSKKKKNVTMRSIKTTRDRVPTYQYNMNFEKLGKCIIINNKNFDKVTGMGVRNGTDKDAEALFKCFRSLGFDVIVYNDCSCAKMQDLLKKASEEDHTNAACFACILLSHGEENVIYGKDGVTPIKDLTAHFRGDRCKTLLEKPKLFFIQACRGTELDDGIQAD
Sequence of Caspase-7 (P55210 207-303 limits assumed): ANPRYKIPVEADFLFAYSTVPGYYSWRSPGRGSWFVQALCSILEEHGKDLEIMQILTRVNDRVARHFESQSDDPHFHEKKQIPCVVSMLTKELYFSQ

With O=C(O)CCc1ccc(-c2ccc(Br)cc2)n1CC(=O)O the AC50 [1] was 3.5 µM (active) and the AC50 [2] was > 70 µM (inactive).
For CCn1c(CNC(=O)c2cc(OC)c(OC)c(OC)c2)cc2cc(C)ccc21, the AC50 [3] was 2.52 µM (active), the AC50 [4] was > 70 µM (inactive) and the AC50 [5] was 13.4 µM (active). For the same compound, the AC50 [6] was 3.79 µM (active).
With O=C(O)CCCN1C(=O)/C(=C/C=C/c2ccco2)SC1=S the IC50 [7] was 19.3 µM (not active), the AC50 [8] was 175 µM (active) and the IC50 [9] was 1.4 µM (active). For the same compound, the IC50 [10] was 39.1 µM (active), the IC50 [11] was > 100 µM (inactive) and the AC50 [12] was 2.42 µM (active). For the same compound, the IC50 [13] was > 122 µM (inactive) and the IC50 [14] was > 122 µM (inactive).
For Cc1ccc(C(C[N+](=O)[O-])c2c(C)[nH]n(-c3ccccc3)c2=O)cc1 (stereo not given), the AC50 [15] was 3.52 µM (active), the IC50 [16] was 24.1 µM (active) and the EC50 [17] was 3.16 µM (active). The IC50 [18] was 24.2 µM (inactive).
With C=CCNC1=C(NCCCN2CCOCC2)C(=O)c2ccccc2C1=O the AC50 [19] was > 70 µM (inactive).
In the case of CC(C)(O)C#Cc1cccc(-c2nc(C(=O)NCc3ccc4c(c3)OCO4)cc3c2[C@@H](CCO)N([S+]([O-])C(C)(C)C)C3)c1 (stereo not given in full), the AC50 [20] is reported as 12.1 µM (active) and the AC50 [21] is reported as 3.93 µM (active).
For C[C@@H]1CN([C@H](C)CO)S(=O)(=O)c2ccc(C#Cc3cccc(F)c3)cc2O[C@@H]1CN(C)S(=O)(=O)c1cn(C)cn1, the AC50 [22] was 3.47 µM (active).
With O=C(CCNC(=O)c1ccc(Cl)cc1)N[C@@H]1CCCc2ccccc21 the AC50 [23] was 4.12 µM (active) and the AC50 [24] was > 52 µM (inactive).
For O=C(O)[C@H]1CCCC[C@H]1C(=O)NC(CN1C(=O)c2ccccc2C1=O)c1ccccc1 (stereo not given in full), the AC50 [25] was > 52 µM (inactive).
